Assay results reported in ChEMBL document CHEMBL4376805, “Plasmodium Purine Metabolism and Its Inhibition by Nucleoside and Nucleotide Analogues” (J Med Chem, 2019).

How the values were obtained:
[1] = biological target: T1, Purine nucleoside phosphorylase (Plasmodium falciparum, UniProt Q8T9Z7)
T1 sequence (Q8T9Z7 whole entry): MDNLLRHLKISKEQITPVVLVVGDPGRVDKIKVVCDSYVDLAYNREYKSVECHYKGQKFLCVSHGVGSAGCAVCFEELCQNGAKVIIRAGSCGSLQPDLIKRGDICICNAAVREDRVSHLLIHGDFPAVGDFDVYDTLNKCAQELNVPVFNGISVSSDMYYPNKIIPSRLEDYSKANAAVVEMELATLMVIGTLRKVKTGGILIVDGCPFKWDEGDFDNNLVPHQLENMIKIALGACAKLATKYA
Description: Inhibition of Plasmodium falciparum His-tagged PNP assessed as inhibitor constant for enzyme-inhibitor complex formation

[2] = biological target: T1, Purine nucleoside phosphorylase; remark: listed apart in the source
Description: Inhibition of Plasmodium falciparum His-tagged PNP assessed as inhibitor constant for enzyme-inhibitor-substrate complex formation

[3] = biological target: T2, Purine nucleoside phosphorylase (Homo sapiens, UniProt P00491)
T2 sequence (P00491 whole entry): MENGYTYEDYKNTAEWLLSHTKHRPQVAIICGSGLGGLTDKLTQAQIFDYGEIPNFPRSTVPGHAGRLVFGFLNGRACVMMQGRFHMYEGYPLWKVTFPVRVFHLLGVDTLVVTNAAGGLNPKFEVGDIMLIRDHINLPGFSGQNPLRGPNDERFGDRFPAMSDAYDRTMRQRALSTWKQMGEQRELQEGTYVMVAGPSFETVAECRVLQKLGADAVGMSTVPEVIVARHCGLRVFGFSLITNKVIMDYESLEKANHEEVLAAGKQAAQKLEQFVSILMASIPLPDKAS
Description: Inhibition of human PNP assessed as inhibitor constant for enzyme-inhibitor complex formation

[4] = biological target: T2, Purine nucleoside phosphorylase; remark: listed apart in the source
Description: Inhibition of human PNP assessed as inhibitor constant for enzyme-inhibitor-substrate complex formation

[5] = Inhibition of Plasmodium falciparum HGXPRT expressed in Escherichia coli BL21 (DE3) assessed as inhibitor constant for enzyme-inhibitor-substrate complex formation using [5'-14C]IMP as substrate by scintillation counting method
[6] = biological target: T3, Hypoxanthine-guanine phosphoribosyltransferase (Homo sapiens, UniProt P00492); test: Inhibition of human HGPRT assessed as inhibitor constant for enzyme-inhibitor complex formation using [5'-14C]IMP as substrate by scintillation counting method
T3 sequence (P00492 whole entry): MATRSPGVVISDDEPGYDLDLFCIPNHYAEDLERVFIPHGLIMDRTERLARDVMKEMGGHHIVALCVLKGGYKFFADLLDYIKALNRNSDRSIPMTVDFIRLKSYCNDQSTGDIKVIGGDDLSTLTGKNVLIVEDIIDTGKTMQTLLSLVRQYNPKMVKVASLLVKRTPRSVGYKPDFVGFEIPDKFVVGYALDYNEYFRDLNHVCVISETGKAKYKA

[7] = biological target: T4, GMP synthase [glutamine-hydrolyzing] (Plasmodium falciparum) (UniProt Q8IJR9); test: Inhibition of Plasmodium falciparum N-terminal His-tagged GMP synthase expressed in Escherichia coli AT2465 assessed as reduction in NADH formation incubated at 0.5 mM for 20 mins by spectrophotometric analysis relative to control
T4 sequence (whole entry): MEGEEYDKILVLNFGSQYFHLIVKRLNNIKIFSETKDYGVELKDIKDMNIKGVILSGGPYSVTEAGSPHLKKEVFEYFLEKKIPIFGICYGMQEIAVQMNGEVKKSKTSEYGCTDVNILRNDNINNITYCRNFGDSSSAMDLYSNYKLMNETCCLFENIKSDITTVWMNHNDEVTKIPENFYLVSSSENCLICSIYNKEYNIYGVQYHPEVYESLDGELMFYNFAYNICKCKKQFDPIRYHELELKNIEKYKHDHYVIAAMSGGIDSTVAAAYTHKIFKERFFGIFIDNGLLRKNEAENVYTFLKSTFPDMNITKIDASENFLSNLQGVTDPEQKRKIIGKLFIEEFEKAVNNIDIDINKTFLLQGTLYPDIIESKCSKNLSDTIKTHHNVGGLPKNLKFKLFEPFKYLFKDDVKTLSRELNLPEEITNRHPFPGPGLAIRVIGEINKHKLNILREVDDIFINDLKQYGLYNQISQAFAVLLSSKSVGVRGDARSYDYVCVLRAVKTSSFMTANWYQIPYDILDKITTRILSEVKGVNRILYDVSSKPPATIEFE

[8] = tested on: Plasmodium falciparum; test: Antimalarial activity against Plasmodium falciparum 3D7 assessed as reduction in parasite growth incubated for 48 hrs by Giemsa-staining counting based microscopic analysis; type: functional, organism-based; conditions: 3D7, 48 h
[9] = tested on: Plasmodium falciparum; test: Antimalarial activity against synchronized Plasmodium falciparum ring stage form assessed as reduction in [2,8-3H]Hypoxanthine incorporation incubated for 48 hrs followed by addition of [2,8-3H]Hypoxanthine and measured after 24 hrs by liquid scintillation counting method; type: functional, organism-based
[10] = biological target: GMP synthase [glutamine-hydrolyzing] (Homo sapiens, UniProt P49915)
GMP synthase [glutamine-hydrolyzing], sequence (P49915 whole entry): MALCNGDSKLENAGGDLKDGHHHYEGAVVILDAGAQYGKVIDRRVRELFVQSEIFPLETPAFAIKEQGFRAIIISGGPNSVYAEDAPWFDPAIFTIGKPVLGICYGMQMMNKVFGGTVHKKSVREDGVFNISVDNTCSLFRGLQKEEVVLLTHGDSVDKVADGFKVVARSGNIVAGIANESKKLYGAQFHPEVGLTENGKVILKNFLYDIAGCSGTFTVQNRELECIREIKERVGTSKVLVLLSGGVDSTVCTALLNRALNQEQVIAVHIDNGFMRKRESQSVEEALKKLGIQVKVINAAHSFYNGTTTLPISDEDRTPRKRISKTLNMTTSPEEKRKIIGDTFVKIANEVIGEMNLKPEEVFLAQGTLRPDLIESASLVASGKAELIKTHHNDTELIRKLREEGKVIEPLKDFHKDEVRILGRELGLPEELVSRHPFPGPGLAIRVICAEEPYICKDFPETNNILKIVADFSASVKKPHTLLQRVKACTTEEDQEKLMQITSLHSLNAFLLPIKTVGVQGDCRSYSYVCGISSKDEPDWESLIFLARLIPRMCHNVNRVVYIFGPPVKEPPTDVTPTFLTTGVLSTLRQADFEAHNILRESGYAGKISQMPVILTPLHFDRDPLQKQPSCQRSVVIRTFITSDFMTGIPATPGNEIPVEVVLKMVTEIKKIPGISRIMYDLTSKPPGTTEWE
Description: Inhibition of human GMP synthase

[11] = tested on: Plasmodium falciparum; test: Antimalarial activity against multi drug-resistant Plasmodium falciparum K1 assessed as reduction in parasite growth [3H]Hypoxanthine incorporation assay; type: functional; conditions: read-out: ID50 (the source's name)
[12] = biological target: T5, Adenosine deaminase (Plasmodium falciparum, UniProt Q86GS5); test: Inhibition of Plasmodium falciparum ADA assessed as reduction in formation of ammonia using adenosine as substrate incubated for 15 mins by spectrophotometric analysis
T5 sequence (Q86GS5 whole entry): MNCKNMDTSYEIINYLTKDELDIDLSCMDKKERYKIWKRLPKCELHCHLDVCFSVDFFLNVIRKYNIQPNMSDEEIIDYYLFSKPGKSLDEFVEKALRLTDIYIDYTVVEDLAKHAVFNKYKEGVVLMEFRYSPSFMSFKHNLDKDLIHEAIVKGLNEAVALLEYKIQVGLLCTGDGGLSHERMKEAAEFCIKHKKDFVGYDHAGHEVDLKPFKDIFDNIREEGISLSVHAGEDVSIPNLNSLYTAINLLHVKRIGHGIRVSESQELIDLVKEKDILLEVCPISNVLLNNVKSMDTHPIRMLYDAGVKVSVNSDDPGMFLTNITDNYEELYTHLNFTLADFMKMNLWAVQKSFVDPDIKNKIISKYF

[13] = tested on: Plasmodium falciparum; test: microbe, parasite or virus in culture; conditions: 3D7
Description: Antimalarial activity against Plasmodium falciparum 3D7 infected in human erythrocytes assessed as reduction in [3H]ethanolamine incorporation incubated for 18 hrs followed by addition of [3H]ethanolamine and measured after 48 hrs by scintillation counting method

[14] = biological target: T5, Adenosine deaminase; test: Inhibition of Plasmodium falciparum N-terminal thrombin cleavable His6-tagged ADA expressed in Escherichia coli BL21 assessed as reduction in formation of inosine using adenosine as substrate
[15] = biological target: T5, Adenosine deaminase; test: Inhibition of Plasmodium falciparum N-terminal thrombin cleavable His6-tagged ADA expressed in Escherichia coli BL21 assessed as equilibrium dissociation constant by measuring reduction in formation of inosine using adenosine as substrate
[16] = biological target: T2, Purine nucleoside phosphorylase; test: Inhibition of human PNP expressed in Escherichia coli assessed as reduction in uric acid formation by spectrophotometric method
[17] = substrate: O=c1[nH]cnc2c1ncn2[C@@H]1O[C@H](CO)[C@@H](O)[C@H]1O; test: Binding affinity to human PNP assessed as catalytic rate by measuring uric acid formation
[18] = substrate: O=c1[nH]cnc2c1ncn2[C@@H]1O[C@H](CO)[C@@H](O)[C@H]1O; test: Binding affinity to Plasmodium falciparum His-tagged PNP assessed as catalytic rate by measuring uric acid formation

For `O=c1[nH]cnc2c(CN3C[C@@H](CO)[C@H](O)C3)c[nH]c12`, the Ki [1] was 1.5 nM, the Ki [2] was 0.68 nM and the Ki [3] was 1700 nM. It also gave a Ki [4] of 80 nM.

Work on `Nc1nc2c([C@@H]3N[C@H](COP(=O)(O)O)[C@@H](O)[C@H]3O)c[nH]c2c(=O)[nH]1` yielded a Ki [5] of 14 nM and a Ki [6] of 56 nM.

In the case of `Nc1ncnc2c1ncn2[C@]1(CO)O[C@H](CO)[C@@H](O)[C@H]1O` [PSICOFURANINE], the inhibition [7] is reported as 25% and the IC50 [8] is reported as 300 µM.

Molecule `Nc1ncnc2c1c(I)cn2[C@@H]1O[C@H](CO)[C@@H](O)[C@H]1O` [IODOTUBERCIDIN] has an IC50 [9] of 2000 nM.

`C=C1O[C@@](CO)(n2cnc3c(N)ncnc32)[C@H](O)[C@@H]1O` [DECOYININE] gave an IC50 [10] of 46.5 µM.

`Nc1nc2c([C@@H]3N[C@H](CO)[C@@H](O)[C@H]3O)c[nH]c2c(=O)[nH]1` gave a Ki [2] of 0.9 nM and a Ki [4] of 29 nM.

With `O=[N+]([O-])c1ccc(CSc2ncnc3c2ncn3[C@@H]2O[C@H](CO)[C@@H](O)[C@H]2O)cc1` [NITROBENZYLMERCAPTOPURINE RIBONUCLEOSIDE] the IC50 [11] was 4.2 µM.

Molecule `O=c1[nH]cnc2c([C@@H]3N[C@H](COP(=O)(O)O)[C@@H](O)[C@H]3O)c[nH]c12` has a Ki [5] of 1 nM.

`OC[C@H]1O[C@@H](n2cnc3c2NC=NC[C@@H]3O)[C@H](O)[C@@H]1O` showed a Ki [12] of 0.007 nM.

`O=c1[nH]cnc2c([C@@H]3N[C@H](CO)[C@@H](O)[C@H]3O)c[nH]c12` [FORODESINE] gave an IC50 [13] of 63 nM.

`OC[C@H]1O[C@@H](n2cnc3c2N=CNC[C@H]3O)[C@H](O)[C@@H]1O` [COFORMYCIN] gave a Ki [14] of 0.68 nM, a Ki [15] of 0.08 nM and a Ki [12] of 0.25 nM.

In the case of `Nc1nc(SCc2ccc([N+](=O)[O-])cc2)c2ncn([C@@H]3O[C@H](CO)[C@@H](O)[C@H]3O)c2n1`, the IC50 [11] is reported as 4.5 µM.

`CSC[C@H]1N[C@@H](c2c[nH]c3c(=O)[nH]cnc23)[C@H](O)[C@@H]1O` showed a Ki [16] of 303 nM and an IC50 [13] of 50 nM.

B1: Purine nucleoside phosphorylase (Homo sapiens), P00491 (protein)
chain: MENGYTYEDYKNTAEWLLSHTKHRPQVAIICGSGLGGLTDKLTQAQIFDYGEIPNFPRSTVPGHAGRLVFGFLNGRACVMMQGRFHMYEGYPLWKVTFPVRVFHLLGVDTLVVTNAAGGLNPKFEVGDIMLIRDHINLPGFSGQNPLRGPNDERFGDRFPAMSDAYDRTMRQRALSTWKQMGEQRELQEGTYVMVAGPSFETVAECRVLQKLGADAVGMSTVPEVIVARHCGLRVFGFSLITNKVIMDYESLEKANHEEVLAAGKQAAQKLEQFVSILMASIPLPDKAS
B1 gave a kcat [17] of 56 s⁻¹.

B2: Purine nucleoside phosphorylase (Plasmodium falciparum), Q8T9Z7 (protein)
chain: MDNLLRHLKISKEQITPVVLVVGDPGRVDKIKVVCDSYVDLAYNREYKSVECHYKGQKFLCVSHGVGSAGCAVCFEELCQNGAKVIIRAGSCGSLQPDLIKRGDICICNAAVREDRVSHLLIHGDFPAVGDFDVYDTLNKCAQELNVPVFNGISVSSDMYYPNKIIPSRLEDYSKANAAVVEMELATLMVIGTLRKVKTGGILIVDGCPFKWDEGDFDNNLVPHQLENMIKIALGACAKLATKYA
Work on B2 yielded a kcat [18] of 0.34 s⁻¹.
